Experimental data from US10745365B2, “Luminogenic and fluorogenic compounds and methods to detect molecules or conditions” (Promega Corporation, priority 2005, dated 2020).
Several values for one entry are separate records, joined by “and”; a condition that tells them apart may be missing. Identical values can stand only once.

Assays:
[1] = test system: human hepatocytes (CYP3A activity)
[2] = target: T1, human recombinant flavin-containing monooxygenase 3 (FMO 3) (Homo sapiens, UniProt P31513); experiment: Two-step luminescent FMO 3 assay; assay type: biochemical; details: fit of Table 33
T1 construct: purchased Sigma Chemical Company F-5053; host or cells: baculovirus infected insect cells (microsomes)
T1 sequence (P31513 1-532): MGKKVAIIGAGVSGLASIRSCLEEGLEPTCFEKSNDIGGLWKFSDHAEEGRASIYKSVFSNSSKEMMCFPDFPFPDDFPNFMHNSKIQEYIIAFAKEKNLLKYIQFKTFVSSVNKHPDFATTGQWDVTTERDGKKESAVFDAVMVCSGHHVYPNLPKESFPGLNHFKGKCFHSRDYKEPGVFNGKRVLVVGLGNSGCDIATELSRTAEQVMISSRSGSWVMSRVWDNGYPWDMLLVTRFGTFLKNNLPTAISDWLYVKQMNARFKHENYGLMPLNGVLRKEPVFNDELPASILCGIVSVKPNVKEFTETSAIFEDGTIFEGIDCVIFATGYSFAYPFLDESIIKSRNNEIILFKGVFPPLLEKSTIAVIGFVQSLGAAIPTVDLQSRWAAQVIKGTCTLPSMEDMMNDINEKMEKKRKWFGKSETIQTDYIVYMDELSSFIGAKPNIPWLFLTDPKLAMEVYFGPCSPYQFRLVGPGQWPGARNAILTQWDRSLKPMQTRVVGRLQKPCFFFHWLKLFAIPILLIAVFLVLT

[3] = target: T2, human recombinant monoamine oxidase A (MAO A) (Homo sapiens, UniProt P21397); experiment: Two-step bioluminogenic MAO A substrate assay
T2 sequence (P21397 1-527): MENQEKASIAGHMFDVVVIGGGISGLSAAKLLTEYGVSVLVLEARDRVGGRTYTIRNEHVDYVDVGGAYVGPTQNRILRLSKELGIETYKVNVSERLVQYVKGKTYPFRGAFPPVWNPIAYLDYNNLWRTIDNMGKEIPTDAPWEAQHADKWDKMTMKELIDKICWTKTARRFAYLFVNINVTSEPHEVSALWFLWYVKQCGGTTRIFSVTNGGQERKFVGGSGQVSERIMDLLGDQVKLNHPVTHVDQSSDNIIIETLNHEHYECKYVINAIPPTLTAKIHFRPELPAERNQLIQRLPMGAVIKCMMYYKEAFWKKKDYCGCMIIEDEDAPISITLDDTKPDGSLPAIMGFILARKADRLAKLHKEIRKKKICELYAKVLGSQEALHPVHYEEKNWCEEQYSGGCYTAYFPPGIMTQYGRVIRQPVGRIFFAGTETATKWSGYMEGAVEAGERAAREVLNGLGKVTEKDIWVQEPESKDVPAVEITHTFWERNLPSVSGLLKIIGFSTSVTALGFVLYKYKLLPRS

[4] = target: T3, QuantiLum Luciferase (firefly luciferase) (Photinus pyralis, UniProt P08659); experiment: Luminescence spectra of fluoroluciferins; assay type: biochemical; details: pH 7.4
T3 construct: purchased Promega Corporation El 70
T3 sequence (P08659 whole entry): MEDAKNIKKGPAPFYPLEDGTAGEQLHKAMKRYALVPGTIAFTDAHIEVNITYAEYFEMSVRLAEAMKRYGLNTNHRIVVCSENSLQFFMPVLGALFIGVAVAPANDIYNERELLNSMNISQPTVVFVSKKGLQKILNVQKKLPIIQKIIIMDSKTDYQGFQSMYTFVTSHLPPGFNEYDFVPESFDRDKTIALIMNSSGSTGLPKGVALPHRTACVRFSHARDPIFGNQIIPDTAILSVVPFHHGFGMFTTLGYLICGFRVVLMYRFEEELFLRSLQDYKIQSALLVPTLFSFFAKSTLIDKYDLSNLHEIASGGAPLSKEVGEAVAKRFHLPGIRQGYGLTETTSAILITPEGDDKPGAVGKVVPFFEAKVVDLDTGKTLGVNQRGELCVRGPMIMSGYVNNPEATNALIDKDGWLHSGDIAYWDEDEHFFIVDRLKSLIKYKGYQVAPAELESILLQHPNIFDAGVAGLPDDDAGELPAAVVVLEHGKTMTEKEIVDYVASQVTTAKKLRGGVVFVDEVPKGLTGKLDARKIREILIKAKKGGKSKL
Procedure: All compounds except fluoroluciferin and ATP were purchased from Sigma Chemical. ATP was purchased from Amersham/Invitrogen.
Spectra were measured using 0.5s integration with 1 nm increments on a Spex Fluorolog.

[5] = target: T3, QuantiLum Luciferase (firefly luciferase); experiment: pH titration of 7′-fluoroluciferin luciferase reaction; assay type: biochemical
[6] = target: T3, QuantiLum Luciferase (firefly luciferase); experiment: ATP titration of luciferase reactions with luciferin and fluoroluciferins; assay type: biochemical
Procedure: AU compounds except 5’-fluoroluciferin and DTT were purchased from Sigma Chemical. To some of this reagent 5 mM ATP (Amersham/Invitrogen) was added, then serially diluted by half-logs to 0.05 mM. Reactions were initiated by adding equal volumes (0.1 ml) of reagent and DMEM medium (Gibco/Invitrogen) containing 0.1% Prionex® (Pentapharm) and 1.4×10-5 mg/ml QuantiLum™ Luciferase (Promega Corporation).
For ATP titrations for 7′-fluoroluciferin, reagent was created containing 200 mM HEPES, 200 mM PIPES, 1 mM CDTA, 0.5% Tergitol NP-9, 0.03% Benzyl dodecyldimethyl ammonium bromide, 30 mM thiourea, 10 mM magnesium sulfate, and 0.15 mM 7′-fluoroluciferin. This solution was separated into 3 parts and pH of the reagents were 7.4, 7.2 and 6.7. To some of this reagent, 10 mM ATP (Amersham/Invitrogen) was added. The ATP was serially diluted by quarter-logs from 10 mM to 0.32 mM.
Reactions were initiated by adding equal volumes (0.03 ml) of reagent and DMEM medium (Gibco/Invitrogen) containing 0.1% Prionex® (Pentapharm) and 1.4×10-5 mg/ml QuantiLum™ Luciferase (Promega Corporation).
Luminescence was measured for 0.5 seconds per well using Berthold Orion luminometer.

[7] = target: T4, equine alcohol dehydrogenase (Equus caballus, UniProt P00327); experiment: Effect of inhibitors on the conversion of luciferol by equine alcohol dehydrogenase; assay type: biochemical; details: luciferol + equine ADH + NAD+ with 10 μl inhibitor solution, 37° C., 30 min; duplicates #1, #2 (controls 1023, 1087)
T4 construct: purchased Sigma Chem. Co. A9589
T4 sequence (P00327 whole entry): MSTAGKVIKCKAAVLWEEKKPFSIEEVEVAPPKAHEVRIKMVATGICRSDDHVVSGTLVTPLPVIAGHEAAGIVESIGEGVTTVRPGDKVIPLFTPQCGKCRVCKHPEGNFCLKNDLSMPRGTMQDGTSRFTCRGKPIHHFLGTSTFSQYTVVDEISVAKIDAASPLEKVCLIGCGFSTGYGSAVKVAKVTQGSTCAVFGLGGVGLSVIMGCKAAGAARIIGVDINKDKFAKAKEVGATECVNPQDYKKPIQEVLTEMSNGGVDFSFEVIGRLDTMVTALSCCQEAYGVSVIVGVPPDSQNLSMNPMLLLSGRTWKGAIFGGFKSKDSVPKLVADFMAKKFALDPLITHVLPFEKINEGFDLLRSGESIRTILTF
Procedure: Trichloroethanol solution: A 0.48 ml sample of 2,2,2, trichloroethanol (Aldrich T5480-5) was dissolved in water.
Reactions were initiated by addition of 1.5 μl of luciferol solution. Upon addition of the luciferol solution, the reactions were mixed and placed at 37° C.

[8] = target: T5, human recombinant monoamine oxidase B (MAO B) (Homo sapiens, UniProt P27338); experiment: biochemical
T5 construct: purchased Sigma Chemical Company M-7441; host or cells: baculovirus infected insect cells (microsomes)
T5 sequence (P27338 1-520): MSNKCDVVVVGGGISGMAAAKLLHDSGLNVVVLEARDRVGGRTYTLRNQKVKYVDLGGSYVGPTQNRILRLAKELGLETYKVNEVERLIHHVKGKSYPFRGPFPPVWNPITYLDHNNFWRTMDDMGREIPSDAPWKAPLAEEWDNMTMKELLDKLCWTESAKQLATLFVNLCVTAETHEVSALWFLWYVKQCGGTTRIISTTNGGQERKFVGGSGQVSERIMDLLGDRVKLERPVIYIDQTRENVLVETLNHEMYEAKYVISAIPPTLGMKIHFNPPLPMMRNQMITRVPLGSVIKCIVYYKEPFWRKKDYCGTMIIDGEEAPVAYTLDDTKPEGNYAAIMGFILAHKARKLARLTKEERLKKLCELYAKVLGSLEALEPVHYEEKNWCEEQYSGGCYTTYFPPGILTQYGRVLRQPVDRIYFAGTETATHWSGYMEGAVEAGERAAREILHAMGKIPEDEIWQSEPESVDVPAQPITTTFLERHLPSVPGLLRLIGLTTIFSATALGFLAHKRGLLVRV

[9] = target: T2, human recombinant monoamine oxidase A (MAO A); experiment: MAO A inhibition (IC50) with substrate MAO-11; assay type: biochemical; parameters: purchased Sigma Chemical Company M-7316; host or cells: baculovirus infected insect cells (microsomes)
CYP2C19 = CYP2C19 (Homo sapiens, UniProt P33261); experiment: biochemical
Sequence of CYP2C19 (P33261 whole entry): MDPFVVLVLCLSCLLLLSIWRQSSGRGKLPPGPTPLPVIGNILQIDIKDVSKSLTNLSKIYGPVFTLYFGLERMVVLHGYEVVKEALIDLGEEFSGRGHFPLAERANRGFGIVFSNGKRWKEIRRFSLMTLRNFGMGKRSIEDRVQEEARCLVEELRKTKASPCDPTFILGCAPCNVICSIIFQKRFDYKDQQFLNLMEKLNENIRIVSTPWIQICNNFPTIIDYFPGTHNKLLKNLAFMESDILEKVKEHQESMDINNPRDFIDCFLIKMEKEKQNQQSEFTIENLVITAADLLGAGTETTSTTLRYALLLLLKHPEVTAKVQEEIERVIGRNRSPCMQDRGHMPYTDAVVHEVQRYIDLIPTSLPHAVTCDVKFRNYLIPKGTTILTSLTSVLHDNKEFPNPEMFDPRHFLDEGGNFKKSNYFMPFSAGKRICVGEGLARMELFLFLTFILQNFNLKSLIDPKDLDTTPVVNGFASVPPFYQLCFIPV

CC(=O)N1CCN(c2ccc(OCC3COC(Cn4ccnc4)(c4ccc(Cl)cc4Cl)O3)cc2)CC1 (centres unmarked) [ketoconazole]
CYP3A-dependent luminescence in hepatocytes [1]: inhibition by ketoconazole of both basal and rifampicin-induced activity

CNCCCOc1ccc2nc(C3=N[C@@H](C(=O)O)CS3)ccc2c1 [MAO-7, 6-(3-methylaminopropoxy)quinolinyl-luciferin]
signal-to-background ratio at the Km value [2]: about 8.5
MAO specificity by ratio RLUmax/Km ([3]; Table 25): more specific substrate for MAO A
signal-to-background ratio at the Km value ([3]; fit of Table 22): about 95

O=C(O)[C@H]1CSC(c2nc3ccc(O)c(F)c3s2)=N1 [7′-fluoroluciferin]
red shift of luminescence λmax from regular luciferin [4]: approximately 21 nm
pH optima of firefly luciferase reaction [5]: ~7.5
ATP requirement of luciferase reaction [6]: requirement for ATP is much higher

c1cn[nH]c1 [Pyrazol, pyrazol]
Relative Light Units [7]: 516.4 Relative Light Units and 490.7 Relative Light Units

NCCc1ccccc1 [phenethylamine]
IC50 [8]: 20 ± 2 µM
IC50 [9]: 134 ± 9 µM

NNC(=O)c1ccncc1 [isoniazid]
IC50 (CYP2C19): 76 µM
